Test results taken from patent publication US12419873B2, “Use of JAK inhibitors in preparation of drugs for treating JAK kinase-related diseases” (ZHUHAI UNITED LABORATORIES CO., LTD., priority 2020, dated 2025).
“Also recorded” adds a separate entry of the source.

What was measured:
JAK2 = JAK2 (Homo sapiens (Human), UniProt O60674); test: In vitro activity test of JAK2 kinase; settings: read-out: JAK2 (IC50)
JAK1 = JAK1 (Homo sapiens (Human), UniProt P23458); test: In vitro activity test of JAK1 kinase; assay type: biochemical
JAK1, sequence (P23458 whole entry): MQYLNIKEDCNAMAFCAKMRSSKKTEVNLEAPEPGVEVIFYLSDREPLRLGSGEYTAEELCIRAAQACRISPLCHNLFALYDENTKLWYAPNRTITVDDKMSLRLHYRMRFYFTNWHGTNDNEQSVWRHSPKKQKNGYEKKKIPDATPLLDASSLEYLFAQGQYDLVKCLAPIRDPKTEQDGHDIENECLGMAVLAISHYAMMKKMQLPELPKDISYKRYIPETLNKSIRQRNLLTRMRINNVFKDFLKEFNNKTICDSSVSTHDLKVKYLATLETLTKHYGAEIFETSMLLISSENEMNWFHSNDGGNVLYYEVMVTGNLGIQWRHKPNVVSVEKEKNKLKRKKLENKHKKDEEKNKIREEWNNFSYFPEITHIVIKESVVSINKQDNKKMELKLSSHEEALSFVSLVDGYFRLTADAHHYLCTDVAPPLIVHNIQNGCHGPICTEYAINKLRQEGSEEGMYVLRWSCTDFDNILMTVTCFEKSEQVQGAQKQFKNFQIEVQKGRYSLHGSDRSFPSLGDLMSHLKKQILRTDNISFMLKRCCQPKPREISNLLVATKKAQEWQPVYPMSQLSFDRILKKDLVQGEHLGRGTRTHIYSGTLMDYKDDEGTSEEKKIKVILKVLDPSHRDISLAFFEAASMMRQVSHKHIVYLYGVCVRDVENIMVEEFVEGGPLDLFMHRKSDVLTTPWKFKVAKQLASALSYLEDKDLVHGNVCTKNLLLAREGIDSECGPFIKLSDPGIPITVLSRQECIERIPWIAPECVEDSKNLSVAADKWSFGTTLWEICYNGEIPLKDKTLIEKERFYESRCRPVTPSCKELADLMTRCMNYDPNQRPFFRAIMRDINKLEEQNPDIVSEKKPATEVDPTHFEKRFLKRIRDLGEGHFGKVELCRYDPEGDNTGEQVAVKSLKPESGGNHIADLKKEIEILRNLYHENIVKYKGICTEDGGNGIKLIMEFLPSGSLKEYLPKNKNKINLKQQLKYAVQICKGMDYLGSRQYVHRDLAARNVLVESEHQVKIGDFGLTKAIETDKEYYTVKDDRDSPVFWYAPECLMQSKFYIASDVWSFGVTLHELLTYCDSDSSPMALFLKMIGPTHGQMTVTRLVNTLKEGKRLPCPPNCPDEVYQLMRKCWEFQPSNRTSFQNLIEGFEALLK
Procedure: (§1) Recombinant human JAK1, JAK2, JAK3, TyK2 protease, main instruments and reagents were provided by Eurofins in the UK
(§2) All compounds were prepared into a 100% DMSO solution and reached 50 times the final determined concentration. The test compound was diluted by 3 times the concentration gradient, and the final concentration was 10 μM to 0.001 μM, 9 concentrations in total, and the content of DMSO in the detection reaction was 2%. The working stock solution of the compound was added to a determination hole as the first component of the reaction, and then the remaining components were added according to the detailed scheme determination below.
(§3) Mg/ATP mixture was added to start the reaction. After incubation at room temperature for 40 minutes, 0.5% phosphoric acid was added to stop the reaction.

[1] = system: DNCB induced allergic dermatitis in mice; test: In vivo pharmacodynamic study on DNCB induced allergic dermatitis (AD) in mice
Procedure: The animal allergic dermatitis model induced by 1-chloro-2,4-dinitrobenzene (DNCB) is basically consistent with the clinical manifestations of AD patients.
Preparation method of solvent: vehicle solution is 30% PEG-400+70% (5% HP-β-CD), pH 4-5. Firstly, 35 g HP-β-CD was dissolved in 700 mL MilliQ pure water, 300 mL PEG-400 was added and mixed well, the pH was adjusted to 4-5, and stored at room temperature.
Preparation method of compounds: the compounds were weighed and added to 30% PEG-400+ 70% (5% HP-β-CD) solution (by volume), and ultrasonically processed. After the solution was fully mixed, it is load into glass bottles and stored in a 4° C. refrigerator.
Seventy male Balb/c mice were weighed and randomly divided into 7 groups with 10 mice in each group.
The animal adaptation period was 3 days. It was adapted to shaving on the back. After 2 days, it was sensitized with the modeling solution, coated with 20 μL 0.5% DNCB solution on the right ear of the mouse, applied with 200 μL 0.5% DNCB solution on the back, once a day for 3 days. The mice were stimulated from day 4, and applied with 10 μL 1% DNCB solution on the right ear of mice, 100 μL 1% DNCB solution on the back of mice, respectively, once every 3 days.
On days 3, 9, 15, 21, and 27, the severity of specific dermatitis was evaluated by evaluating four clinical inflammatory indicators of atopic dermatitis: Erythema/bleeding, scar/dryness, edema, and infiltration/erosion. Each evaluation index has four grades: 0, none; 1. slight; 2. moderate; 3. obvious; 4. very obvious. Sum the scores represents score of the skin. […] The spleen was taken and the spleen index was calculated: spleen index=spleen weight (mg)/body weight (g).
The experimental data were expressed by means±standard error (Mean±SEM), and all data were statistically analyzed by one-way ANOVA, with P<0.05 as the statistical difference.

[2] = system: DSS induced ulcerative colitis and Crohn's disease in mice; test: In vivo pharmacodynamic study on DSS induced inflammatory bowel disease (IBD) in mice; design: species or system mice (C57BL/6); Colon length: unit not given here
Source text: Inflammatory bowl disease (IBD) is a kind of recurrent disease. It is difficult to cure, has a high recurrence rate, and has a poor prognosis, it has a certain correlation with the incidence of colon cancer. The development of drugs for the treatment of IBD will help alleviate the symptoms of ulcerative colitis and Crohn's disease and improve the quality of life of patients. The mouse inflammation model induced by dextran sulfate sodium (DSS) is similar to the human disease ulcerative colitis and Crohn's disease. It is a common classical model for preclinical evaluation of drug efficacy.
Preparation method of DSS: 20 g DSS was weighed, 1000 mL drinking water was added to form 2% DSS solution, and stored in a 4° C. refrigerator. It is effective within one month.
Preparation method of a solvent: Vehicle solution is an aqueous solution containing 0.5% methylcellulose and 0.5% Tween 80. Firstly, 5 g of methylcellulose was dissolved in 990 mL of pure water, then 5 g of Tween 80 was added in small amount for many times, mixed evenly and stored at room temperature.
Preparation method of compounds: the compound was weighed, an aqueous solution with a mass ratio of 0.5% methylcellulose+0.5% Tween 80 was added, and it was processed by ultrasonic until it was dissolved.
The adaptation period of the animals was 3 days. After adaptation, the animals were weighed every day. The blank group was given drinking water, and the other groups were given drinking water containing 2% DSS. The water volume was 5 mL/animal/day. The animals in the test drug group were administrated by gavage once a day. The blank group and […] group were given the same volume of vehicle, with the administration volume of 10 mL/kg. Every other day, the fecal viscosity was evaluated, feces were collected for fecal occult blood detection, and the disease activity index (DAI) score was calculated. DSS consumption was detected every day. Fresh DSS solution was replaced every two days. The dosing cycle was continuous intragastric administration for 7 days, followed by 4 days of drug withdrawal, followed by 7 days of continuous intragastric administration. Normal drinking water was changed when intragastric administration was stopped.
DAI is the sum of the scores of body weight, fecal viscosity and fecal occult blood. Among them, the semi quantitative detection method of piramine cave was adopted for detecting fecal occult blood, including adding piramine cave to the sample first, then adding hydrogen peroxide and ethanol solution, and reading and scoring the color within 2 min. Immediately generating purple blue is marked as 4+, generating the purple blue within 10 s is marked as 3+, generating purple red within 1 min is marked as 2+, and gradually generating the purple red within 1-2 min is marked as 1+, and generating no color reaction of purple orchid or purple red within the reading time is recorded as negative (−). After the experiment, the colon and spleen were taken, and the length of colon and the weight of spleen were measured. The spleen index was the ratio of spleen weight to body weight.

TYK2 = TYK2 (Homo sapiens (Human), UniProt P29597); test: In vitro activity test of TYK2 kinase; assay type: biochemical
TYK2, sequence (P29597 whole entry): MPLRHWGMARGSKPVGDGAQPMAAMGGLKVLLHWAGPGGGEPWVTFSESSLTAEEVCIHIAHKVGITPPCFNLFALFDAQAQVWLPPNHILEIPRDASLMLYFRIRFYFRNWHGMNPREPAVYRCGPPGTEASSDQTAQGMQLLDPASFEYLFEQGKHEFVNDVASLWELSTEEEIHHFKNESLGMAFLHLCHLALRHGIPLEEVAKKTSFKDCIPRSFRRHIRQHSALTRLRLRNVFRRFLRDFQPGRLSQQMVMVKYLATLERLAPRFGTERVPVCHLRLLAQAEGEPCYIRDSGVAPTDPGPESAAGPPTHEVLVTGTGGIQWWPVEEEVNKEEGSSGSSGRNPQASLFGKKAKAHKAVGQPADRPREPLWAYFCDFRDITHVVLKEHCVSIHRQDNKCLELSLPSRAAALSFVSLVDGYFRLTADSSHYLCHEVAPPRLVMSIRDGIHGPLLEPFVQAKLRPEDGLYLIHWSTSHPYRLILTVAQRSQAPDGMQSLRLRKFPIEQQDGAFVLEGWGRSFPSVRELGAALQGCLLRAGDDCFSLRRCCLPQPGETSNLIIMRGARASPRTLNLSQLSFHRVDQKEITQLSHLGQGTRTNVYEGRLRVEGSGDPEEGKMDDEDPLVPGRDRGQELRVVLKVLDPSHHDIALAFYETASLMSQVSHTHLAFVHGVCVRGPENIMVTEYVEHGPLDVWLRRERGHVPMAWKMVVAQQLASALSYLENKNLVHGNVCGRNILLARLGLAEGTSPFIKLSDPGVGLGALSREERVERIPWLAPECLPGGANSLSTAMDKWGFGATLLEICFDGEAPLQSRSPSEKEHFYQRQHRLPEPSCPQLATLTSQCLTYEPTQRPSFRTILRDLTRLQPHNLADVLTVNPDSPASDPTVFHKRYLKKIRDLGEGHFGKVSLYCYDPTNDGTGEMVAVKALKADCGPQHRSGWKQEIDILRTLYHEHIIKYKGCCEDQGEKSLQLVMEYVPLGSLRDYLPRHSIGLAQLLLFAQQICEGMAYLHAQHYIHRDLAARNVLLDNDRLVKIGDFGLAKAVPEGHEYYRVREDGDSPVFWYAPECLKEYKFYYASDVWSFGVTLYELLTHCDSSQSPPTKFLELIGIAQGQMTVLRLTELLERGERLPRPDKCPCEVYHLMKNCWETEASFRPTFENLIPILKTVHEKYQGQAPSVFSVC
Procedure: as §1, §2, §3

JAK3 = JAK3 (Homo sapiens (Human), UniProt P52333); test: In vitro activity test of JAK3 kinase; assay type: biochemical
JAK3, sequence (P52333 whole entry): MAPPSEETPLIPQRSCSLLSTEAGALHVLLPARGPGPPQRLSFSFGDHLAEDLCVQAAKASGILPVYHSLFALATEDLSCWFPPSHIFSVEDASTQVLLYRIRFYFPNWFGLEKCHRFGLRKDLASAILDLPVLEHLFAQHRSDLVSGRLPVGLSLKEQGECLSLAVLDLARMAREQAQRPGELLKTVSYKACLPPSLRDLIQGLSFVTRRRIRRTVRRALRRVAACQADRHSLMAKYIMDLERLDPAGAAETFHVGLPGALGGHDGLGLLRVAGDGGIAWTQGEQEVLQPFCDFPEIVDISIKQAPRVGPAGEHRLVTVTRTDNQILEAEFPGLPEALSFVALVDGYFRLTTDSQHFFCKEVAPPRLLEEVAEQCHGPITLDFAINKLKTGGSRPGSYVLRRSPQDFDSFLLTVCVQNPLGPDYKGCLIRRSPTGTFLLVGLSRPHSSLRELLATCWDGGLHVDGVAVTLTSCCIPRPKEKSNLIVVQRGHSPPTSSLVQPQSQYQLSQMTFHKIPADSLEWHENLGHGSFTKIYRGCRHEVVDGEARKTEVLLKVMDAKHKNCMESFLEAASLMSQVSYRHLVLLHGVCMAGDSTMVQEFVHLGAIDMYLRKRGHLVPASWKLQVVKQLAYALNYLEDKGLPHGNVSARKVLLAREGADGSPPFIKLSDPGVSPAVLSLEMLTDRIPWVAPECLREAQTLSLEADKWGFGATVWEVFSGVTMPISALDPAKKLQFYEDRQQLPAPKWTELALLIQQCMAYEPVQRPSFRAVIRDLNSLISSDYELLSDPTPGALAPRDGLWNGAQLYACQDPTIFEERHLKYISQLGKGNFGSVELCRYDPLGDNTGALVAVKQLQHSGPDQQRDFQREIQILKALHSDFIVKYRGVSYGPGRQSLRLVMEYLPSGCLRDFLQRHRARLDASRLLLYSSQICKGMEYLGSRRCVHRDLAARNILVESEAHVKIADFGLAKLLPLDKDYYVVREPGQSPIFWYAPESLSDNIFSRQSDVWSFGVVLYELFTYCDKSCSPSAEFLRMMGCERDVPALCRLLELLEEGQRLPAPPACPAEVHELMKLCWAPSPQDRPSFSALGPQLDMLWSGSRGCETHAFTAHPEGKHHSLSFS
Procedure: as §1, §2, §3

[3] = after the experiment, 30 mg/kg p.o. qd, 28 days, Mean±SEM
[4] = day 2, 15 mg/kg p.o. qd, Mean±SEM
[5] = day 4, 15 mg/kg p.o. qd, Mean±SEM
[6] = day 6, 15 mg/kg p.o. qd, Mean±SEM
[7] = day 8, 15 mg/kg p.o. qd, Mean±SEM
[8] = day 12, 15 mg/kg p.o. qd, Mean±SEM
[9] = day 14, 15 mg/kg p.o. qd, Mean±SEM
[10] = day 16, 15 mg/kg p.o. qd, Mean±SEM
[11] = day 18, 15 mg/kg p.o. qd, Mean±SEM

JAK2, sequence (O60674 whole entry): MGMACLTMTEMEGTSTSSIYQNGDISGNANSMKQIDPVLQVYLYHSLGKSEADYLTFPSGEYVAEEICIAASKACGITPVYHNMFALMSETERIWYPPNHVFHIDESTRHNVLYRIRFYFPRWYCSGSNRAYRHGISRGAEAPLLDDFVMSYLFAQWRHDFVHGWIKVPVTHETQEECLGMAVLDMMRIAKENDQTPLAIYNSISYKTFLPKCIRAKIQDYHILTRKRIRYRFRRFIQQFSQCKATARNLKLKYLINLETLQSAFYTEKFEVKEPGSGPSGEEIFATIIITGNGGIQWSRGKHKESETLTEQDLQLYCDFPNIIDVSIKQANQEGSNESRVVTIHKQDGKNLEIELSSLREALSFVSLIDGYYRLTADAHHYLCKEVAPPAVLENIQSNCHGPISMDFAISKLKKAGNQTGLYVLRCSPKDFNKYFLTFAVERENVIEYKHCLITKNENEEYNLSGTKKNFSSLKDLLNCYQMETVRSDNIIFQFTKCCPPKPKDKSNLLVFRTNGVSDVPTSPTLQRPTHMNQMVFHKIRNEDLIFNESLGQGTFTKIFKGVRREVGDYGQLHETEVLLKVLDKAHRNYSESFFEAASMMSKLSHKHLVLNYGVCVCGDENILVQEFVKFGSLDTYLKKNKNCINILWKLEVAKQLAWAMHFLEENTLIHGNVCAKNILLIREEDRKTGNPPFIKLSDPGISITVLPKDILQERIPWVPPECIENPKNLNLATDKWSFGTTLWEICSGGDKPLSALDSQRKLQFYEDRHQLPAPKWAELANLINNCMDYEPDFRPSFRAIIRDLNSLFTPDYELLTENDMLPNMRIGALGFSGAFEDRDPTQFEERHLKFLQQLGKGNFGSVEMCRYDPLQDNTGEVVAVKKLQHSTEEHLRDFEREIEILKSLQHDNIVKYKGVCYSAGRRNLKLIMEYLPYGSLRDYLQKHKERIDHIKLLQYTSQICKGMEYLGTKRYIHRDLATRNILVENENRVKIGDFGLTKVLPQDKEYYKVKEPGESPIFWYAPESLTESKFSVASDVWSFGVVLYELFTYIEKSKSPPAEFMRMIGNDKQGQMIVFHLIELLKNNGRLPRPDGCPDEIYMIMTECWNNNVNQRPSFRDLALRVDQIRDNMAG

O=C(Nc1nc2cccc(C3CCC4(CC3)CN(C(=O)[C@H]3CC3(F)F)C4)n2n1)[C@@H]1CC1(F)F [Compound 9-3] was tested. Which IC50 (JAK2) did it give?
Its IC50 is 292 nM.

And the IC50 (JAK1)?
Its IC50 is 7 nM.

And the “Effect on the weight of mice (in words)” value ([1]; 30 mg/kg p.o. qd, 28 days)?
Its value is “no significant effect”.

What about the “Effect on treating allergic dermatitis (in words)” value ([1]; 30 mg/kg p.o. qd, DNCB mice) of the same compound?
Its value is “good disease treatment effect; also recorded: significant effect”.

What about the “Concentration of IgE in serum after drug intervention (in words)” value ([1]; 30 mg/kg p.o., vs DNCB group) of the same compound?
The value was “significantly decreased”.

What about the “Spleen index after drug intervention (in words)” value ([1]; 30 mg/kg p.o., vs DNCB group) of the same compound?
Its value is “significantly decreased”.

What about the “Thickness of the right ear after drug intervention (in words)” value ([1]; 30 mg/kg p.o., vs DNCB group) of the same compound?
The value was “significantly decreased”.

What about the “IgE concentration in serum” value [1, 3] of the same compound?
Its value is 6.39 ± 1.04.

What about the “Thickness of the right ear” value [1, 3] of the same compound?
The value was 0.252 ± 0.006.

What about the Weight of mice ([1]; day 1, 30 mg/kg p.o. qd from day 4, Mean±SEM) of the same compound?
The Weight of mice was 19.32 ± 0.46.

What about the Skin score ([1]; day 3, 30 mg/kg p.o. qd from day 4, Mean±SEM) of the same compound?
Its Skin score is 0.7 ± 0.5.

And the Weight of mice ([1]; day 4, 30 mg/kg p.o. qd, Mean±SEM)?
The Weight of mice was 20.02 ± 0.41.

What about the Weight of mice ([1]; day 7, 30 mg/kg p.o. qd, Mean±SEM) of the same compound?
Its Weight of mice is 19.24 ± 0.47.

What about the Skin score ([1]; day 9, 30 mg/kg p.o. qd, Mean±SEM) of the same compound?
Its Skin score is 3.4 ± 0.7.

What about the Weight of mice ([1]; day 10, 30 mg/kg p.o. qd, Mean±SEM) of the same compound?
The Weight of mice was 19.41 ± 0.58.

And the Weight of mice ([1]; day 13, 30 mg/kg p.o. qd, Mean±SEM)?
Its Weight of mice is 20.83 ± 0.42.

What about the Skin score ([1]; day 15, 30 mg/kg p.o. qd, Mean±SEM) of the same compound?
Its Skin score is 4.2 ± 0.6.

And the Weight of mice ([1]; day 16, 30 mg/kg p.o. qd, Mean±SEM)?
The Weight of mice was 21.49 ± 0.45.

And the Weight of mice ([1]; day 19, 30 mg/kg p.o. qd, Mean±SEM)?
Its Weight of mice is 23.36 ± 0.38.

What about the Skin score ([1]; day 21, 30 mg/kg p.o. qd, Mean±SEM) of the same compound?
Its Skin score is 5.4 ± 0.9.

And the Weight of mice ([1]; day 22, 30 mg/kg p.o. qd, Mean±SEM)?
Its Weight of mice is 23.67 ± 0.37.

What about the Weight of mice ([1]; day 25, 30 mg/kg p.o. qd, Mean±SEM) of the same compound?
Its Weight of mice is 23.14 ± 0.42.

And the Skin score ([1]; day 27, 30 mg/kg p.o. qd, Mean±SEM)?
The Skin score was 2.2 ± 0.9.

What about the “Skin score compared with DNCB group (in words)” value ([1]; day 27 of administration, 30 mg/kg p.o.) of the same compound?
The value was “significant reduction”.

What about the Weight of mice ([1]; day 28, 30 mg/kg p.o. qd, Mean±SEM) of the same compound?
The Weight of mice was 24.15 ± 0.50.

And the Spleen index ([1]; spleen weight (mg)/body weight (g), 30 mg/kg p.o. qd, 28 days, Mean±SEM)?
Its Spleen index is 4.17 ± 0.65.

What about the “Colon shortening caused by DSS, compared with DSS group (in words)” value ([2]; 15 mg/kg p.o.) of the same compound?
The value was “can reduce colon shortening”.

And the “Increase of spleen index induced by DSS (in words)” value ([2]; 15 mg/kg p.o.)?
Its value is “could reduce the increase of spleen index”.

And the Colon length ([2]; after the experiment, 15 mg/kg p.o. qd, Mean±SEM)?
Its Colon length is 2.87 ± 0.11.

And the Weight of mice ([2]; day 1, 15 mg/kg p.o. qd, Mean±SEM)?
The Weight of mice was 22.26 ± 0.29.

What about the DAI score [2, 4] of the same compound?
The DAI score was 0.40 ± 0.16.

What about the Weight of mice [2, 4] of the same compound?
The Weight of mice was 22.48 ± 0.29.

What about the Weight of mice ([2]; day 3, 15 mg/kg p.o. qd, Mean±SEM) of the same compound?
Its Weight of mice is 22.39 ± 0.27.

And the DAI score [2, 5]?
Its DAI score is 1.70 ± 0.54.

What about the Weight of mice [2, 5] of the same compound?
The Weight of mice was 22.26 ± 0.31.

What about the Weight of mice ([2]; day 5, 15 mg/kg p.o. qd, Mean±SEM) of the same compound?
Its Weight of mice is 22.18 ± 0.40.

And the DAI score [2, 6]?
The DAI score was 2.40 ± 0.37.

What about the Weight of mice [2, 6] of the same compound?
Its Weight of mice is 22.00 ± 0.43.

And the Weight of mice ([2]; day 7, 15 mg/kg p.o. qd, Mean±SEM)?
The Weight of mice was 21.21 ± 0.53.

And the DAI score [2, 7]?
Its DAI score is 4.70 ± 0.94.

What about the Weight of mice [2, 7] of the same compound?
Its Weight of mice is 20.72 ± 0.67.

What about the Weight of mice ([2]; day 9, 15 mg/kg p.o. qd, Mean±SEM) of the same compound?
Its Weight of mice is 19.89 ± 0.37.

And the Weight of mice ([2]; day 10, 15 mg/kg p.o. qd, Mean±SEM)?
The Weight of mice was 18.92 ± 0.47.

What about the Weight of mice ([2]; day 11, 15 mg/kg p.o. qd, Mean±SEM) of the same compound?
The Weight of mice was 18.60 ± 0.62.

And the DAI score [2, 8]?
The DAI score was 4.11 ± 0.53.

And the Weight of mice [2, 8]?
The Weight of mice was 18.50 ± 0.74.

What about the Weight of mice ([2]; day 13, 15 mg/kg p.o. qd, Mean±SEM) of the same compound?
The Weight of mice was 19.42 ± 0.78.

And the DAI score [2, 9]?
The DAI score was 4.88 ± 0.44.

And the Weight of mice [2, 9]?
The Weight of mice was 19.26 ± 0.93.

And the Weight of mice ([2]; day 15, 15 mg/kg p.o. qd, Mean±SEM)?
The Weight of mice was 19.96 ± 0.84.

And the DAI score [2, 10]?
The DAI score was 3.67 ± 0.86.

And the Weight of mice [2, 10]?
Its Weight of mice is 20.84 ± 0.46.

What about the Weight of mice ([2]; day 17, 15 mg/kg p.o. qd, Mean±SEM) of the same compound?
Its Weight of mice is 20.42 ± 0.50.

And the DAI score [2, 11]?
The DAI score was 4.83 ± 0.68.

What about the Weight of mice [2, 11] of the same compound?
Its Weight of mice is 19.78 ± 0.43.

What about the Spleen index ([2]; ratio of spleen weight to body weight, 15 mg/kg p.o. qd, Mean±SEM) of the same compound?
The Spleen index was 4.98 ± 0.40.

What about the IC50 (TYK2) of the same compound?
The IC50 was 105 nM.

And the IC50 (JAK3)?
Its IC50 is greater than 10000 nM.
